Where two headings read alike, the source gives them in different places. Non-standard residues stand in square brackets, D forms with d. Residues, ends and D or L forms follow the SMILES beside them. Primed or numbered codes have the meaning given here. No end group written: not given here. *: point of attachment. X1 = O=C(O)CN1CCN(CC(=O)O)CC(Cc2ccc(NC(=S)*)cc2)N(CC(=O)O)CC1; PEG27′ = polyethylene glycol linker of 27 —(OCH2CH2)— units; Biotin = O=C1N[C@H]2[C@H](CS[C@H]2CCCCC(=O)*)N1; NOTA = O=C(O)CN1CCN(CC(=O)O)CCN(CC(=O)*)CC1; βAla = NCCC(=O)O
What was measured:
[1] = target: T1, granzyme B (Mus musculus, UniProt P04187); assay: Binding of ^68Ga-NOTA-GP to purified granzyme B adsorbed to plates vs BSA; set-up: purchased R&D systems; details: 1 h binding, bound tracer counted by gamma counter, 6 replicates
T1 sequence (P04187 21-247): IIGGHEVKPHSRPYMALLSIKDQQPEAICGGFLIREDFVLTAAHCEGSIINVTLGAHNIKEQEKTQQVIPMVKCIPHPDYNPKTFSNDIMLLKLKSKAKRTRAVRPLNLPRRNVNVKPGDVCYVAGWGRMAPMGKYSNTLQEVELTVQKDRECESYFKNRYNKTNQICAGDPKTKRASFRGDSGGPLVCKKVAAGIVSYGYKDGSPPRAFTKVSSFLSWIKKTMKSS
Method: Granzyme B was adsorbed to plates and the plates were blocked with non-fat milk. The ^68Ga-NOTA-GP was permitted to bind for 1 h, the wells washed, and bound ^68Ga-NOTA-GP recovered by incubation with 2N NaOH and counted by gamma counter. […] The bars in FIG. 4 represent the mean of 6 replicates±SD.

[2] = system: CT26 tumors; assay: Ex vivo bio-distribution at 1 h and 2 h post-injection; assay type: in vivo, mice; details: 1 h and 2 h post-injection
Method: (§1) Following injection with ˜1 mCi of ^68Ga-NOTA-GP (see Example 1) via tail-vein mice were sacrificed at either one-hour or two-hour time-points. Mouse urine, blood, tumor, and vital organs were sampled, and radioactivity assessed on a gamma-counter.
(§2) Following imaging, mice were sacrificed and tumoral GZB expression quantified by Western blot. […] Tumoral uptake of treated tumors was measured at 1.15% ID/g at 1 h and 1.02% ID/g at 2 h in comparison to 0.70 and 0.55% ID/g in untreated control tumors, as shown in FIG. 7B.

[3] = as above; assay type: in vivo, mice; details: mouse, tumor, iv, 1 mCi, total radioactivity; for tissue uptake at 1 h: 1 h post-injection; for tissue uptake at 2 h: 2 h post-injection
Method: as §1, §2

[4] = target: T1, granzyme B; assay type: in vivo, mice; set-up: from tissue; host or cells: CT26 (BALB/C) and MC38 syngeneic tumours in living mice; granzyme B from infiltrating host lymphocytes
Method: For imaging studies, mice were treated with intraperitoneal injection of either vehicle, 200 μg anti-PD-1 murine therapeutic antibody (αPD1), or both 200 μg αPD1 and 100 μg anti-CTLA-4 murine therapeutic antibody (αCTLA-4) on days 3, 6, and 9 following CT-26 tumor inoculation. 1×10^6 BP cells were diluted 1:1 with Matrigel and injected in the right shoulder of female C57BL/6 mice. Once tumors had reached 3-5 mm in diameter, mice were treated with daily oral gavage of vehicle or dabrafenib prepared in aqueous suspension with 0.5% hydroxypropylmethyl cellulose (HPMC) and 0.2% Tween. One day following initiation of BRAF inhibition, mice were additionally randomized to intraperitoneal injection with 200 μg αPD1 as specified. Mice were sacrificed on specified day either for Western blot and immunohistochemistry alone, or following imaging for correlative analysis. Mice were imaged on a GE Triumph PET/CT. Following CT acquisition, PET images were obtained for 15 min in 2 bed positions. Images were constructed using 3D-OSEM (4 iterations, 16 subsets) and corrected for scatter and randoms. The mean standard uptake value (SUVmean) for each tumor was calculated in a 3D region of interest auto-drawn around the tumor using a 30% isocontour threshold. Region of interests were also calculated for left ventricle, liver lung, muscle, and kidney. Images were post-processed using VivoQuant (InviCRO, Boston, Mass.). On day 14 post-inoculation, mice were injected with ˜37 MBq of purified ^68Ga-NOTA-GP intravenously and imaged at 1 h post-injection. […] The mean TBR of treated mice was calculated at 1.69±0.26, whereas the mean TBR of untreated mice was 0.93±0.11, a significant increase (83%, P<0.05) from untreated to treated mice, as shown in FIG. 11. ^68Ga-NOTA-GP uptake was observed across both treated and untreated tumors.

[5] = target: T1, granzyme B; assay: Response prediction using granzyme B PET imaging across CT26 and MC38 models; assay type: in vivo, mice; set-up: from tissue; host or cells: CT26 (BALB/C) and MC38 syngeneic tumours in living mice; granzyme B from infiltrating host lymphocytes; details: CT26 and MC38, all therapies
Description: As a measure of the accuracy of granzyme B PET (i.e., GZP PET) imaging-based response prediction across multiple tumor models and therapies described in Examples 9-11, classifications of uptake using TBR thresholds of 1.27 for CT26 tumors and 1.45 for MC38 tumors were utilized. […] This reflects an overall sensitivity and specificity of 93% and 89% respectively for the ability of ^68Ga-GZP PET to predict immunotherapy response.

[6] = system: CT26 cells; assay: Binding of ^68Ga-NOTA-GP to CT26 cells with or without pre-incubation with granzyme B; assay type: cell-based; details: 100 μCi/mL, pre-incubated with granzyme B (60 nM) or vehicle, 30 min
Method: CT26 cells were plated in 96 well plates and grown to 70% confluency. ^68Ga-NOTA-GP was diluted to 100 μCi/mL in 1% BSA plus RPMI buffer and either pre-incubated with granzyme B (60 nM) or vehicle prior to addition to wells. The peptide was incubated with cells for 30 min prior to washing and elution with 2M NaOH.

[7] = system: CT26 tumors; assay: Ex vivo tumor to blood ratio by gamma counter in CT26 tumor bearing mice; details: day 14, 1 h post-injection
Method: After confirming the ^68Ga-NOTA-GP bound to purified granzyme B and specifically accumulated in target cells, the in vivo tumor accumulation was investigated in CT26 tumor bearing mice using the same model used to generate the Western blot data from Example 2 (see FIG. 1). On day 14 post-inoculation, mice were injected with […] of ^68Ga-NOTA-GP and mice were sacrificed at 1 h following injection. Tumors and blood were collected from 7 mice that were treated with combination therapy (ant-PD-1 and CTLA-4). The tumors were grouped based on size as either responders (mass<[…]) or non-responders (mass≥[…]) The amount of radioactive ^68Ga-NOTA-GP in both the tumor and blood were quantified using a gamma counter and the adjusted based on mass and the ratio of injected dose per gram of tumor to blood (TBR) was plotted for tumors in each group.

[8] = system: tumor; details: mouse, in vivo
Description: Both peptides were designed to test the effects of additional groups on the pharmacokinetics and tumor to background ratios in mice.

[9] = target: T2, human granzyme B (Homo sapiens, UniProt P10144); assay: Immunohistochemistry and immunofluorescence of human melanoma specimens with hGZP; assay type: binding; details: treated responder melanoma samples, IHC and immunofluorescence
T2 construct: from tissue; host or cells: formalin-fixed paraffin-embedded human melanoma biopsy sections
Method: Immunohistochemistry was performed on formalin-fixed paraffin-embedded sections following standard antigen retrieval in citrate buffer. Granzyme B expression was detected with either an anti-Granzyme B antibody (ab5049, Abcam) or a biotinylated and humanized version of GZP (hGZP, see Example 1A). Bound antibody was detected with either HRP-conjugated goat anti-rabbit antibody and reacted with DAB substrate for IHC staining or AlexaFluor 488 goat anti-rabbit or AlexaFluor 594 goat anti-rabbit antibodies (Life Technologies) for immunofluorescent visualization. Bound peptide was detected with either HRP-conjugated streptavidin (Abcam) followed by reaction with DAB substrate or Oregon green conjugated neutravidin (Life Technologies). […] Fluorescence quantification was performed using ImageJ software (National Institutes of Health, Bethesda, Md.).
(§3) A cohort of 9 human melanoma biopsy samples obtained from patients treated with anti-PD-1 checkpoint inhibitors (n=6 nivolumab and n=3 pembrolizumab), which were retrospectively correlated with response based on modified RECIST criteria. […] To quantify the degree and magnitude of difference between treated responders and nonresponders, quantitative fluorescent microscopy was performed. […]

[10] = target: Granzyme B (purified, R&D Systems); assay: in vitro granzyme B enzyme activity inhibition (cleavage of BOC-Ala-Ala-Asp-SBZL, absorbance at 405 nm)
[11] = target: T3, human granzyme B (human, UniProt P10144 21-247); assay: immunohistochemistry and immunofluorescence on human melanoma sections, compared with anti-granzyme B antibody
T3 construct: Endogenous protein in tissue sections, not purified; also called granzyme B in human melanoma tissue
Method: Immunohistochemistry was performed on formalin-fixed paraffin-embedded sections following standard antigen retrieval in citrate buffer. Granzyme B expression was detected with either an anti-Granzyme B antibody (ab5049, Abcam) or a biotinylated and humanized version of GZP (hGZP, see Example 1A). Bound antibody was detected with either HRP-conjugated goat anti-rabbit antibody and reacted with DAB substrate for IHC staining or AlexaFluor 488 goat anti-rabbit or AlexaFluor 594 goat anti-rabbit antibodies (Life Technologies) for immunofluorescent visualization.
Bound peptide was detected with either HRP-conjugated streptavidin (Abcam) followed by reaction with DAB substrate or Oregon green conjugated neutravidin (Life Technologies). […] Fluorescence quantification was performed using ImageJ software (National Institutes of Health, Bethesda, Md.).
as §3

T3 sequence (P10144 21-247 limits assumed): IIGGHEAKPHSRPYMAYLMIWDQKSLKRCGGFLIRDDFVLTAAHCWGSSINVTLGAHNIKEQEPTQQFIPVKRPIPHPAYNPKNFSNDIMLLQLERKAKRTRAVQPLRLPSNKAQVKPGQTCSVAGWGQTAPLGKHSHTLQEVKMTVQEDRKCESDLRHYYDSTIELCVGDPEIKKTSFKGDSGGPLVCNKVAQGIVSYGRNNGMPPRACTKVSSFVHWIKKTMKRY
T2 sequence (P10144 21-247): as the sequence (P10144 21-247 limits assumed) above

With `CCC(C)C(NC(=O)CNC(=O)CNC(=O)CNC(=S)Nc1ccc(CC2CN(CC(=O)O)CCN(CC(=O)O)CCN2CC(=O)O)cc1)C(=O)NC(CCC(=O)O)C(=O)NC(Cc1ccccc1)C(=O)NC(C=O)CC(=O)O` (stereo not drawn) [^68Ga-NOTA-GP, metal not drawn] (X1-GGGIEFD-aldehyde; configuration not given here) the “binding to granzyme B compared to control protein (BSA)” value [1] was “significantly (P<0.05) higher binding to granzyme B than to the control protein (BSA)”, the clearance [2] was “rapid renal clearance” and the tissue uptake at 1 h ([3]; treated tumors, read-out: tumoral uptake, treated tumors, 1 h) was 1.15 %ID/g. For the same molecule, the tissue uptake at 2 h ([3]; treated tumors, read-out: tumoral uptake, treated tumors, 2 h) was 1.02 %ID/g, the tissue uptake at 1 h ([3]; untreated control tumors, read-out: tumoral uptake, untreated control tumors, 1 h) was 0.7 %ID/g and the tissue uptake at 2 h ([3]; untreated control tumors, read-out: tumoral uptake, untreated control tumors, 2 h) was 0.55 %ID/g. The “correlation of TBR with tumoral GZB expression (Western blot)” value ([4]; P<0.001) was “significant correlation between uptake and GZB expression”, the “increase of mean TBR from untreated to treated mice” value ([4]; mouse, in vivo) was 83% and the “mean TBR (tumor to left ventricle) by PET, treated mice” value ([4]; mouse, in vivo) was 1.69±0.26. The “mean TBR (tumor to left ventricle) by PET, untreated mice” value ([4]; mouse, in vivo) was 0.93±0.11, the “overall sensitivity to predict immunotherapy response” value ([5]; 25 of 27 responding mice high-uptake) was 93% and the “overall specificity to predict immunotherapy response” value ([5]; 34 of 38 non-responding mice low-uptake) was 89%. For the same molecule, the “binding/uptake in CT26 cells” value [6] was “binds granzyme B and is taken up specifically by cancer cells”, the “tumor to blood ratio (TBR), injected dose per gram, responders” value ([7]; combination therapy (anti-PD-1 and CTLA-4) treated mice, responders (mass<0.8 mg)) was 6.06-13.74 and the “tumor to blood ratio (TBR), injected dose per gram, non-responders” value ([7]; combination therapy treated mice, non-responders (mass≥0.8 mg)) was 0.95-2.48.

In the case of “NOTA-beta A-G-G-G-T-E-A-A-A-A-S-S-C-F-I-E-F-D-CHO ({NOTA}-[βAla]GGGTEAAAASSCFIEFD-aldehyde; SMILES CC[C@H](C)[C@H](NC(=O)[C@H](Cc1ccccc1)NC(=O)[C@H](CS)NC(=O)[C@H](CO)NC(=O)[C@H](CO)NC(=O)[C@H](C)NC(=O)[C@H](C)NC(=O)[C@H](C)NC(=O)[C@H](C)NC(=O)[C@H](CCC(=O)O)NC(=O)[C@@H](NC(=O)CNC(=O)CNC(=O)CNC(=O)CCNC(=O)CN1CCN(CC(=O)O)CCN(CC(=O)O)CC1)[C@@H](C)O)C(=O)N[C@@H](CCC(=O)O)C(=O)N[C@@H](Cc1ccccc1)C(=O)N[C@H](C=O)CC(=O)O) [GZPSERP]”, the “aggregation and liver uptake” value [8] is reported as “significant aggregation and high liver uptake” and the “tumor to background ratios” value [8] is reported as “much lower tumor to background ratios”.

With “NOTA-beta A-PEG27-G-G-G-I-E-F-D ({NOTA-βAla-PEG27′}-GGGIEFD) [GZPPEG]” the tumor uptake kinetics [8] was “almost identical tumor uptake kinetics to NOTA-GP”.

In the case of {Biotin-βAla}-GGGIEPD-aldehyde [hGZP], the “binding to granzyme B in human tissue compared with anti-granzyme B antibody” value [9] is reported as “highly specific binding of hGZP to human granzyme B”.

B1: NOTA-beta-Ala-Gly-Gly-Ile-Glu-Phe-Asp-CHO (nonradioactive gallium-labeled) (peptide)
peptide: {NOTA}-[βAla]GGIEFD-aldehyde
modifications: also: NOTA complexed with nonradioactive gallium
B1 gave a Ki [10] of 47 nM.

B2: Biotin-beta-Ala-Gly-Gly-Gly-Ile-Glu-Pro-Asp-CHO (peptide)
peptide: Biotin-[βAla]GGGIEPD-aldehyde
SMILES: CC[C@H](C)[C@H](NC(=O)CNC(=O)CNC(=O)CNC(=O)CCNC(=O)CCCC[C@@H]1SC[C@@H]2NC(=O)N[C@@H]21)C(=O)N[C@@H](CCC(=O)O)C(=O)N1CCC[C@H]1C(=O)N[C@H](C=O)CC(=O)O
notes: also called hGZP; biotinylated human granzyme B peptide
B2: binds [11].

From patent publication US11559590B2, “Granzyme B directed imaging and therapy” (The General Hospital Corporation, priority 2016, dated 2023)
